# Data taken from publication PMC7898615 (Chemistry (Weinheim an Der Bergstrasse, Germany), 2020).
# Target: T1, tryptophan synthase (TS) complex, TrpA:TrpB (Salmonella enterica, UniProt P0A2K1)
# T1 sequence (P0A2K1 1-397): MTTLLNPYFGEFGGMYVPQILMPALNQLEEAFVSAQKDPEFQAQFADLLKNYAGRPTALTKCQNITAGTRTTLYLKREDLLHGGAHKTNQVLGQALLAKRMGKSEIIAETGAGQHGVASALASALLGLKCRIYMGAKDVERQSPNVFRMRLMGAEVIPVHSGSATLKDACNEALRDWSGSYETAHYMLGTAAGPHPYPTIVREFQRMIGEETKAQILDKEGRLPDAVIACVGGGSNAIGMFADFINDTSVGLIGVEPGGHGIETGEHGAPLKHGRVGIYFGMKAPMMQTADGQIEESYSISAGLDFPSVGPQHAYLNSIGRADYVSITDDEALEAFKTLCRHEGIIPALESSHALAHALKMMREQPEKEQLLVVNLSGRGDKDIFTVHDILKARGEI
# T1 sequence (P00929 1-268 partner): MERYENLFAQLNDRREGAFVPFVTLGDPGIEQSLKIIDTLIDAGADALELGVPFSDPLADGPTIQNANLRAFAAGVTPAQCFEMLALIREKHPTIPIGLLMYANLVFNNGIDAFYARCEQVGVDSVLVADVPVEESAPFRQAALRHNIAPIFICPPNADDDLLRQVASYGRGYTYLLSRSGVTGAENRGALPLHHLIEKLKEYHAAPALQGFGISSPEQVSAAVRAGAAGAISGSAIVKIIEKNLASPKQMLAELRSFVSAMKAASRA
# Test: coupled VioA/HRP assay of Trp formation, […] nm, global fit
# Type: biochemical
row,Compound,Ki
1,"O=C(NCCCCCOP(=O)(O)O)c1ccc(/N=N\c2ccccc2)cc1 [4e, 4 e (Z isomer)]",930 ± 420 µM
2,"O=C(NCCCCCOP(=O)(O)O)c1ccc(/N=N/c2ccccc2)cc1 [4e, (E)‐5‐(4‐(phenyldiazenyl)benzamido)pentyl dihydrogen phosphate]",180 ± 40 µM
3,"O=C(NCCCCOP(=O)(O)O)c1ccc(/N=N\c2ccccc2)cc1 [4d, 4 d (Z isomer)]",> 4000 µM
4,"O=C(NCCCCCCOP(=O)(O)O)c1ccc(/N=N/c2ccccc2)cc1 [4f, (E)‐6‐(4‐(phenyldiazenyl)benzamido)hexyl dihydrogenphosphate]",50 µM
5,"O=C(NCCCCOP(=O)(O)O)c1ccc(/N=N/c2ccccc2)cc1 [4d, (E)‐4‐(4‐(phenyldiazenyl)benzamido)butyl dihydrogen phosphate]",640 ± 80 µM
6,"O=C(NCCCCCCOP(=O)(O)O)c1ccc(/N=N\c2ccccc2)cc1 [4f, 4 f (Z isomer)]",100 ± 10 µM
